Measurements reported in PMC9268102, “Design, Synthesis and Biological Evaluation of 1,3,5-Triazine Derivatives Targeting hA1 and hA3 Adenosine Receptor” (Molecules, 2022).
Values joined by “and” are separate entries in the source; they are usually repeats but may differ in a detail not shown here. Equal entries are not always repeated.

Tests used:
hA1 AR = target: T1, hA1 AR (Homo sapiens, UniProt P30542); experiment: Radioligand competition binding assay at hA1 AR; settings: for Percentage Inhibition (%) at 10 μM, hA1 AR / inhibition at 10 µM: 10 μM compound; for Percentage Inhibition (%) at 10 μM, hA1 AR / inhibition at 10 µM / Ki: [3H]DPCPX, CHO cells; for inhibition at 10 µM: read-out: Percentage Inhibition (%) at 10 μM, hA1 AR; for Selectivity (hA1 AR:hA3 AR): ratio of Ki hA1 AR to Ki hA3 AR
T1 construct: host or cells: CHO-A1 (CHO cells expressing hA1 AR)
T1 sequence (P30542 1-326): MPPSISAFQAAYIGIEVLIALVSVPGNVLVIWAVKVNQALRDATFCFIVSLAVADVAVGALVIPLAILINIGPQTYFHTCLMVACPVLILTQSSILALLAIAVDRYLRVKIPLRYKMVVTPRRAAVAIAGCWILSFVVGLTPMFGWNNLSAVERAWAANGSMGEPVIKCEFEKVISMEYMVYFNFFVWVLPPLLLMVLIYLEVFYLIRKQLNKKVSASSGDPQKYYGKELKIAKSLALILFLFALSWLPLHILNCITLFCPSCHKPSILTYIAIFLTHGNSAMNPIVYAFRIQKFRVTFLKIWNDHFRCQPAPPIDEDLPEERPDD
Procedure: (§1) All the synthesized compounds were screened with radioligand binding assays at hARs. First, the percentage of inhibition was measured by treatment of each hAR subtype with 10 μM of each compound (Table 1).
(§2) hA1, hA2A, and hA3 AR competition binding experiments were carried out in a multiscreen GF/C 96-well plate (Millipore, Madrid, Spain) pretreated with binding buffer (Hepes 20 mM, NaCl 100 mM, MgCl2 10 mM, 2 U/mL adenosine deaminase, pH = 7.4 for hA1 AR; Tris-HCl 50 mM, EDTA 1 mM, MgCl2 10 mM, 2 U/mL adenosine deaminase, pH = 7.4 for hA2A AR; and Tris-HCl 50 mM, EDTA 1 mM, MgCl2 5 mM, 2 U/mL adenosine deaminase, pH = 7.4 for hA3 AR, respectively). In each well was incubated 5 µg of membranes from Euroscreen CHO-A1 cell line, 5µg of membranes from Hela-A2A cell line, or 30µg of membranes from Hela-A3 cell line and prepared in laboratory: 1 nM [^3H]-DPCPX (140 Ci/mmol, 1 mCi/Ml, Perkin Elmer NET974001MC) for hA1 AR; 1 nM [^3H]-ZM241385 (50 Ci/mmol, 1 mCi/mL, ARC-ITISA 0884) for hA2A AR; and 10 nM [^3H]-NECA (29.6 Ci/mmol, 1 mCi/mL, Perkin Elmer NET811250UC) for hA3 AR, respectively; and the compounds studied according to standard protocol. Non-specific binding was determined in the presence of R-PIA 10 µM (Sigma P4532) for hA1 AR; of NECA 50 µM (Sigma E2387) for hA2A AR; and of R-PIA 100 µM (Sigma P4532) for hA3 AR, respectively. The reaction mixture (Vt: 200 µL/well) was incubated at 25 °C for 60 min (hA1 AR), 30min (hA2A AR), or 180min (hA3 AR); whereafter it was filtered and washed four times (hA1 and hA2A AR) or six times (hA3 AR) with 250 μL wash buffer (Hepes 20 mM, NaCl 100 mM, MgCl2 10 mM pH = 7.4, for hA1 AR; Tris-HCl 50 mM, EDTA 1 mM, MgCl2 10 mM, pH = 7.4, for hA2A AR; and Tris-HCl 50mM pH = 7.4, for hA3 AR, respectively) before being measured in a microplate beta scintillation counter (MicrobetaTrilux, PerkinElmer, Madrid, Spain).

hA2A AR = target: T2, hA2A AR (Homo sapiens, UniProt P29274); experiment: Radioligand competition binding assay at hA2A AR; settings: 10 μM compound, [3H]ZM241385, Hela cells; for inhibition at 10 µM: read-out: Percentage Inhibition (%) at 10 μM, hA2A AR
T2 construct: expressed in transfected cells; host or cells: Hela-A2A cell line
T2 sequence (P29274 whole entry): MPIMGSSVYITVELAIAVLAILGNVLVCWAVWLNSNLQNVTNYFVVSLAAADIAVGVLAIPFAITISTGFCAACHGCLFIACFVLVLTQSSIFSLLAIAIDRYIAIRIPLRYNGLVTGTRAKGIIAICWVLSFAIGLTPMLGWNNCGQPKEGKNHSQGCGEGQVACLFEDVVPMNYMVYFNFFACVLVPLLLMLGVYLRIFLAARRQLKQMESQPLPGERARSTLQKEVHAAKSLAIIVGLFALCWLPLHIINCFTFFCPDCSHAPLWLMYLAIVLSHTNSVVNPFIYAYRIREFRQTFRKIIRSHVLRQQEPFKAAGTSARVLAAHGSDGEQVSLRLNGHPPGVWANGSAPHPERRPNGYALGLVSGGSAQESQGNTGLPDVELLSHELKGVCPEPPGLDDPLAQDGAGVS
Procedure: as §1, §2

hA2B AR = target: T3, hA2B AR (Homo sapiens, UniProt P29275); experiment: Radioligand competition binding assay at hA2B AR; settings: 10 μM compound; [3H]DPCPX; HEK-293 cells; read-out: Percentage Inhibition (%) at 10 μM, hA2B AR
T3 construct: host or cells: HEK-A2B (HEK-293T-A2B) cell line
T3 sequence (P29275 1-332): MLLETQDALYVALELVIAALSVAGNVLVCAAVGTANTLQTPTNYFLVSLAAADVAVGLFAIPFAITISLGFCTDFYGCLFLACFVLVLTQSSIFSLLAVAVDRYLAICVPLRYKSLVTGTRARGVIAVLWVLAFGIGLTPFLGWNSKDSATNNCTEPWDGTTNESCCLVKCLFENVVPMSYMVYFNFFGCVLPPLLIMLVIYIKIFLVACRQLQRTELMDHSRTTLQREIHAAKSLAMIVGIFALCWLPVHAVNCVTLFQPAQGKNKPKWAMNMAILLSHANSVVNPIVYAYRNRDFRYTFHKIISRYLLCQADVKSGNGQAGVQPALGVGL
Procedure: as §1
hA2B AR competition binding experiments were carried out in a multiscreen GF/C 96-well plate. In each well was incubated 25 µg of membranes from Euroscreen HEK-A2B cell line and prepared in laboratory, 25 nM [^3H]-DPCPX (140 Ci/mmol, 1 mCi/mL, Perkin Elmer NET974001MC) and compounds studied according to standard protocol. Non-specific binding was determined in the presence of NECA 1000 µM (Sigma E2397). The reaction mixture (Vt: 250 µL/well) was incubated at 25°C for 30 min, 200 µL was transferred to GF/C 96-well plate (Millipore, Madrid, Spain), and pretreated with binding buffer (Tris-HCl 50 Mm, EDTA 1 mM, MgCl2 5 mM, Bacitracin […], adenosine deaminase 2 U/Ml, pH = 6.5). It was then filtered and washed four times with 250 μL wash buffer (Tris-HCl 50 mM, EDTA 1 mM, MgCl2 5 mM, pH = 6.5), before being measured in a microplate beta scintillation counter (MicrobetaTrilux, PerkinElmer, Madrid, Spain).

hA3 AR = target: T4, hA3 AR (Homo sapiens, UniProt P0DMS8); experiment: Radioligand competition binding assay at hA3 AR; design: expressed in transfected cells; host or cells: Hela-A3 cell line; settings: for Percentage Inhibition (%) at 10 μM, hA3 AR / inhibition at 10 µM: 10 μM compound; for Percentage Inhibition (%) at 10 μM, hA3 AR / inhibition at 10 µM / Ki: [3H]NECA; for inhibition at 10 µM: read-out: Percentage Inhibition (%) at 10 μM, hA3 AR
T4 sequence (P0DMS8 1-318): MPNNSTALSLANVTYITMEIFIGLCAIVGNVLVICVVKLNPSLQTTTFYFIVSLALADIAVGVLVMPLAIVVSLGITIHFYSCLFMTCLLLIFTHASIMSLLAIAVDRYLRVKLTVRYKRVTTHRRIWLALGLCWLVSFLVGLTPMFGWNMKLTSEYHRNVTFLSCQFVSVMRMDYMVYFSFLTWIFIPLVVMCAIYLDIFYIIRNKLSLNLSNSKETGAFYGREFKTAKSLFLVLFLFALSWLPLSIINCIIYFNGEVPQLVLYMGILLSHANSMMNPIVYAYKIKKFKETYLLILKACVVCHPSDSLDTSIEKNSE
Procedure: as §1, §2

[1] = compared with hydroxyl compound 9a

Percentage Inhibition (%) at 10 μM, hA1 AR (hA1 AR) [%] | inhibition at 10 µM (hA1 AR) [%] | Ki (hA1 AR) [µM] | Selectivity (hA1 AR:hA3 AR) (hA1 AR) | Percentage Inhibition (%) at 10 μM, hA2A AR (hA2A AR; 10 µM) [%] | inhibition at 10 µM (hA2A AR) [%] | inhibition at 10 µM (hA2B AR) [%] | Percentage Inhibition (%) at 10 μM, hA3 AR (hA3 AR) [%] | inhibition at 10 µM (hA3 AR) [%] | Ki (hA3 AR) [µM] | Improvement of binding affinity at hA1 AR (hA1 AR; [1]) | Improvement of binding affinity at hA3 AR (hA3 AR; [1]) [fold] | SMILES
99 ± 1 | > 95 | 0.0579 | 0.0875 | 94 ± 3 | > 95 | 90 ± 1 | 95 ± 1 | > 95 | 0.661 | – | – | COc1cc(Nc2nc(N)nc(-c3ccc(O)cc3)n2)ccc1Cl [Compound 9c, 4-{4-amino-6-[(4-chloro-3-methoxyphenyl)amino]-1,3,5-triazin-2-yl}phenol]
95 ± 1 | > 90 | 0.0781 | 5.87 | – | 83 ± 1 | 65 ± 2 | 97 ± 1 | > 90 | 0.0133 | about 2 fold | ~5 | COc1ccc(-c2nc(N)nc(Nc3ccc(OC)c(F)c3)n2)cc1 [Compound 11a, N^2-(3-fluoro-4-methoxyphenyl)-6-(4-methoxyphenyl)-1,3,5-triazine-2,4-diamine]
98 ± 1 | > 90 | 0.0983 | 1.7 and 1.74 | – | 49 ± 1 | 56 ± 1 | 95 ± 4 | > 90 | 0.0566 | – | – | COc1ccc(Nc2nc(N)nc(-c3ccc(F)cc3)n2)cc1F [Compound 11b, N^2-(3-fluoro-4-methoxyphenyl)-6-(4-fluorophenyl)-1,3,5-triazine-2,4-diamine]
